Assay: mn = molality of the nth substance listed, in mol/kg
Conditions: 101 kPa, Liquid; for speed of sound: Sing-around technique in a fixed-path interferometer; for mass density: Vibrating tube method

CCOC(=O)CC(C)=O [ethyl 3-oxobutanoate] + O
Conditions | mass density, 288.15 K [kg/m3] | mass density, 293.15 K [kg/m3] | mass density, 298.15 K [kg/m3] | mass density, 303.15 K [kg/m3] | mass density, 308.15 K [kg/m3] | speed of sound, 288.15 K [m/s] | speed of sound, 293.15 K [m/s] | speed of sound, 298.15 K [m/s] | speed of sound, 303.15 K [m/s] | speed of sound, 308.15 K [m/s]
m1 = 0.076 | 1000.05 | 999.128 | 997.91 | 996.474 | 994.809 | 1472.6 | 1487.8 | 1501.3 | 1513 | 1523.1
m1 = 0.1625 | 1001.1 | 1000.13 | 998.838 | 997.358 | 995.64 | 1479.2 | 1493.6 | 1506.4 | 1517.4 | 1526.9
m1 = 0.2495 | 1002.14 | 1001.1 | 999.76 | 998.22 | 996.445 | 1485.5 | 1499.2 | 1511.2 | 1521.6 | 1530.4
m1 = 0.3767 | 1003.62 | 1002.48 | 1001.05 | 999.44 | 997.59 | 1494.1 | 1506.7 | 1517.7 | 1527.1 | 1535
m1 = 0.4725 | 1004.7 | 1003.48 | 1002 | 1000.32 | 998.41 | 1500 | 1511.7 | 1522 | 1530.8 | 1538.1
m1 = 0.5324 | 1005.38 | 1004.1 | 1002.58 | 1000.86 | 998.9 | 1503.4 | 1514.7 | 1524.5 | 1532.9 | 1539.8
m1 = 0.6848 | 1007.03 | 1005.6 | 1004 | 1002.18 | 1000.12 | 1511.6 | 1521.7 | 1530.5 | 1537.8 | 1543.7
m1 = 0.7843 | 1008.1 | 1006.56 | 1004.9 | 1003.01 | 1000.9 | 1516.3 | 1525.7 | 1533.7 | 1540.4 | 1545.8
m1 = 0.9019 | 1009.31 | 1007.65 | 1005.93 | 1003.94 | 1001.76 | 1521.4 | 1529.9 | 1537.2 | 1543.1 | 1547.8

COC(=O)CC(C)=O [methyl 3-oxobutanoate] + O
Conditions | mass density, 288.15 K [kg/m3] | mass density, 293.15 K [kg/m3] | mass density, 298.15 K [kg/m3] | mass density, 303.15 K [kg/m3] | mass density, 308.15 K [kg/m3] | speed of sound, 288.15 K [m/s] | speed of sound, 293.15 K [m/s] | speed of sound, 298.15 K [m/s] | speed of sound, 303.15 K [m/s] | speed of sound, 308.15 K [m/s]
m1 = 0.0809 | 1000.36 | 999.43 | 998.205 | 996.78 | 995.12 | 1472.5 | 1487.7 | 1501.3 | 1513.1 | 1523.2
m1 = 0.1654 | 1001.65 | 1000.66 | 999.37 | 997.9 | 996.2 | 1477.3 | 1491.9 | 1504.8 | 1516.1 | 1525.7
m1 = 0.285 | 1003.44 | 1002.36 | 1001 | 999.454 | 997.68 | 1484.7 | 1498.3 | 1510.5 | 1521 | 1529.9
m1 = 0.386 | 1004.9 | 1003.75 | 1002.33 | 1000.73 | 998.91 | 1490.1 | 1503.1 | 1514.6 | 1524.4 | 1532.7
m1 = 0.4607 | 1005.98 | 1004.75 | 1003.3 | 1001.65 | 999.79 | 1494.2 | 1506.6 | 1517.6 | 1527 | 1534.9
m1 = 0.5604 | 1007.37 | 1006.06 | 1004.56 | 1002.85 | 1000.94 | 1499.6 | 1511.4 | 1521.7 | 1530.5 | 1537.9
m1 = 0.6367 | 1008.4 | 1007.01 | 1005.53 | 1003.74 | 1001.79 | 1503 | 1514.2 | 1524.1 | 1532.5 | 1539.5
m1 = 0.7871 | 1010.4 | 1008.9 | 1007.35 | 1005.47 | 1003.45 | 1509.8 | 1520.2 | 1529.1 | 1536.7 | 1542.9
m1 = 0.8429 | 1011.13 | 1009.58 | 1008 | 1006.11 | 1004.04 | 1512.2 | 1522.2 | 1530.9 | 1538.1 | 1544

Source: the NIST ThermoML archive (doi:10.1021/je4009987)
